# Results reported in paper PMC5524215 (Journal of clinical pharmacology, 2016).
# Like-named read-outs stand apart in the source and are kept apart here. Where a SMILES comes first, the peptide text is derived from it.
# Columns and labels:
# [1] = beagle, GLP, 5 mg/kg/dose four times per day (20 mg/kg/day) for 14 days; cited from earlier work
# [2] = Repeated dose pharmacokinetics of intravenous CN-105; assay type: in vivo, human; conditions: for Ratio 2/1: AUCTAU2/AUCTAU1, repeated 1 mg/kg i.v. infusions over 30 min; for Ratio 13/1: AUCTAU13/AUCTAU1, repeated 1 mg/kg i.v. infusions over 30 min; for AUCTAU1 / AUCTAU2 / AUCTAU13: repeated 1 mg/kg i.v. infusions over 30 min; for AUCTAU2: dose 2; for AUCTAU13: dose 13
# [3] = rodent, GLP, 5 mg/kg/dose four times per day (20 mg/kg/day) for 14 days; cited from earlier work
# [4] = Safety and tolerability in healthy adult subjects; conditions: healthy adults, single 0.01-1.0 mg/kg and repeated 1 mg/kg i.v.
# [5] = Single ascending dose pharmacokinetics of intravenous CN-105 in healthy adults
# [6] = in vivo, iv
# [7] = murine pharmacokinetics; cited from earlier work
# [8] = healthy adults, 1 mg/kg i.v. every 6 h for 72 h
smiles,measurement,setting,value
CC(=O)N[C@H](C(=O)N[C@@H](CO)C(=O)N[C@@H](CCCNC(=N)N)C(=O)N[C@@H](CCCNC(=N)N)C(=O)N[C@@H](CCCNC(=N)N)C(N)=O)C(C)C [CN-105] (Ac-VSRRR-NH2; N-terminus and C-terminus assumed),tolerability of repeated intravenous administration,[1],well-tolerated
same,accumulation on repeated dosing,"[2]; 1 mg/kg i.v. every 6 h for 72 h, judged by AUCTAU ratios between time points",no significant accumulation
same,Ratio 2/1,[2]; geometric mean,1.1
same,Ratio 2/1,[2]; mean of subjects,1.1
same,Ratio 2/1,[2]; median,1.1
same,Ratio 13/1,[2]; geometric mean,1.2
same,Ratio 13/1,[2]; mean of subjects,1.2
same,Ratio 13/1,[2]; median,1.3
same,time at which trough concentrations reached a stable plateau,[2]; [8],≤ 20 h
same,time to steady state,[2]; [8],≤ 24 h
same,half-life,"[2]; human, plasma, iv, 1 mg/kg",3.6 h
same,AUC(0-t),"[2]; human, plasma, iv, 1 mg/kg, AUCTAU1, repeated 1 mg/kg i.v. infusions over 30 min, dose 1, geometric mean",9540 ng·h/mL
same,AUCTAU1,"[2]; dose 1, maximum among subjects",11431.3
same,AUCTAU1,"[2]; dose 1, median",9911.7
same,AUCTAU1,"[2]; dose 1, minimum among subjects",7425.1
same,AUCTAU2,[2]; geometric mean,10506.5
same,AUCTAU2,[2]; maximum among subjects,12581.6
same,AUCTAU2,[2]; median,10448.8
same,AUCTAU2,[2]; minimum among subjects,8990.5
same,AUCTAU13,[2]; geometric mean,11328.6
same,AUCTAU13,[2]; maximum among subjects,14203.2
same,AUCTAU13,[2]; median,11600.4
same,AUCTAU13,[2]; minimum among subjects,9382.1
same,tolerability of repeated intravenous administration,[3],well-tolerated
same,"changes in serial ECG, vital signs or clinical laboratory tests",[4],No concerning changes were observed
same,observed half-life at higher doses,"[5]; healthy adults, i.v., higher doses",3.6 h
same,half-life,"[5]; human, plasma, iv",3.5 h
same,AUC(0-inf),"[5]; human, plasma, iv, 0.01 mg/kg",95.9 ± 20.2 ng·h/mL
same,Cmax,"[5]; human, plasma, iv, 0.01 mg/kg",35.7 ± 10.9 ng/mL
same,Vd,"[5]; human, plasma, iv, 0.01 mg/kg",29.8 ± 3.2 L
same,clearance,"[5]; human, plasma, iv, 0.01 mg/kg",150 mL/min
same,AUC(0-inf),"[5]; human, plasma, iv, 0.03 mg/kg",281 ± 39.6 ng·h/mL
same,Cmax,"[5]; human, plasma, iv, 0.03 mg/kg",108 ± 25.5 ng/mL
same,Vd,"[5]; human, plasma, iv, 0.03 mg/kg",30.4 ± 8 L
same,clearance,"[5]; human, plasma, iv, 0.03 mg/kg",150 mL/min
same,AUC(0-inf),"[5]; human, plasma, iv, 0.1 mg/kg",1130 ± 194 ng·h/mL
same,Cmax,"[5]; human, plasma, iv, 0.1 mg/kg",408 ± 129 ng/mL
same,Vd,"[5]; human, plasma, iv, 0.1 mg/kg",38.9 ± 12 L
same,clearance,"[5]; human, plasma, iv, 0.1 mg/kg",137 mL/min
same,AUC(0-inf),"[5]; human, plasma, iv, 0.3 mg/kg",2670 ± 272 ng·h/mL
same,Cmax,"[5]; human, plasma, iv, 0.3 mg/kg",966 ± 209 ng/mL
same,Vd,"[5]; human, plasma, iv, 0.3 mg/kg",45.6 ± 11.2 L
same,clearance,"[5]; human, plasma, iv, 0.3 mg/kg",147 mL/min
same,AUC(0-inf),"[5]; human, plasma, iv, 1 mg/kg",9550 ± 1280 ng·h/mL
same,Cmax,"[5]; human, plasma, iv, 1 mg/kg",3940 ± 507 ng/mL
same,Vd,"[5]; human, plasma, iv, 1 mg/kg",38.4 ± 8.1 L
same,clearance,"[5]; human, plasma, iv, 1 mg/kg",128 mL/min
same,T1/2,[6]; 0.01 mg/kg,2.3 ± 0.5
same,T1/2,[6]; 0.03 mg/kg,2.4 ± 0.5
same,T1/2,[6]; 0.1 mg/kg,3.3 ± 0.6
same,T1/2,[6]; 0.3 mg/kg,3.6 ± .4
same,T1/2,[6]; 1 mg/kg,3.5 ± 0.3
same,half-life predicted by animal modeling,[7],0.5 h
